Here are results for 23 compounds from ChEMBL document CHEMBL3860070, “Optimization and biological evaluation of celastrol derivatives as Hsp90-Cdc37 interaction disruptors with improved druglike properties” (Bioorg Med Chem, 2016).

One data set is filed under the species Homo sapiens. In words: Inhibition of His-tagged full length Hsp90/GST-tagged Cdc37 middle domain (unknown origin) interaction at 50 uM after 1 hr by TR-FRET assay relative to control.
The nature of data set [1]: Inhibition of His-tagged full length Hsp90/GST-tagged Cdc37 middle domain (unknown origin) interaction after 1 hr by TR-FRET assay. Also on record: species or system Homo sapiens. (In general: In TR-FRET formats the signal depends on donor and acceptor labels being close together.)
Data set [2] can be described thus: Antiproliferative activity against human MCF7 cells assessed as reduction in cell viability after 48 hrs by MTT assay. It is filed as functional, cell-based. The settings on record: MCF7, 48 h. (In general: Tetrazolium assays rely on reduction of a dye to a coloured formazan, in cell work by metabolically active cells.)
Data set [3] can be described thus: Antiproliferative activity against human PANC1 cells assessed as reduction in cell viability after 48 hrs by MTT assay. The settings on record: PANC-1, 48 h. It is filed as functional, cell-based.
Data set [4] is described as follows: Antiproliferative activity against human A549 cells assessed as reduction in cell viability after 48 hrs by MTT assay. It is filed as functional, cell-based. The settings on record: A549, 48 h.
Data set [5] can be described thus: Permeability of the compound at pH 7.4 by PAMPA-based pION assay. Type of data set: ADME. The conditions noted are these: read-out: permeability. For orientation: In PAMPA a lipid-coated filter parts donor from acceptor wells.
Data set [6] in a line: Antiproliferative activity against paclitaxel-resistant human A549 cells assessed as reduction in cell viability after 48 hrs by MTT assay. Type of data set: functional, cell-based. The conditions noted are these: A549, 48 h.

What is called inhibition is the relative decrease from the control value, in per cent. Usually IC50 stands for the concentration that gives 50% inhibition.

As to `CC1=C(O)C(=O)C=C2C1=CC=C1[C@@]2(C)CC[C@@]2(C)[C@@H]3C[C@](C)(C(=O)NCCN4CCCC4)CC[C@]3(C)CC[C@]12C`, the inhibition in the data set listed under Homo sapiens turned out to be 89.2%. Also, the IC50 in data set [1] was 6.5 µM; in data set [2], 1.1 µM; in data set [3], 1.03 µM; in data set [4], 0.67 µM. In addition, the Papp in data set [5] amounted to 230 nm/s.

Regarding `CC1=C(O)C(=O)C=C2C1=CC=C1[C@@]2(C)CC[C@@]2(C)[C@@H]3C[C@](C)(C(=O)N4CCCC4)CC[C@]3(C)CC[C@]12C`, the inhibition in the data set listed under Homo sapiens is 56.4%. The IC50 in data set [2] came out at 1.81 µM; in data set [3] it was 2.11 µM; in data set [4], 2.85 µM.

Turning to `CCCOC(=O)[C@]1(C)CC[C@]2(C)CC[C@]3(C)C4=CC=C5C(=CC(=O)C(O)=C5C)[C@]4(C)CC[C@@]3(C)[C@@H]2C1`, in the data set filed under Homo sapiens, the inhibition was 44.9%. Further, the results for the IC50 in data set [2], in data set [3] and in data set [4] were 1.52 µM, 1.31 µM and 1.74 µM, respectively.

The compound `CC1=C(O)C(=O)C=C2C1=CC=C1[C@@]2(C)CC[C@@]2(C)[C@@H]3C[C@](C)(C(=O)N(C)C)CC[C@]3(C)CC[C@]12C` returned an inhibition in the data set filed under Homo sapiens of 60.6%. The IC50 amounted to 1.43 µM in data set [2], 2.66 µM in data set [3] and 1.81 µM in data set [4].

Take `CC1=C(O)C(=O)C=C2C1=CC=C1[C@@]2(C)CC[C@@]2(C)[C@@H]3C[C@](C)(C(=O)N4CCCCC4)CC[C@]3(C)CC[C@]12C`: the inhibition in the data set listed under Homo sapiens is 54.8%. For the same compound, the IC50 is 1.89 µM in data set [2], 2.29 µM in data set [3] and 1.92 µM in data set [4].

`CC1=C(O)C(=O)C=C2C1=CC=C1[C@@]2(C)CC[C@@]2(C)[C@@H]3C[C@](C)(C(=O)NCCN4CCCCC4)CC[C@]3(C)CC[C@]12C` returned an inhibition in the data set filed under Homo sapiens of 75.7%. Further, the IC50 in data set [2] is 1.18 µM; in data set [3], 1.25 µM; in data set [4], 0.84 µM. In data set [5], the Papp was 181 nm/s.

`CC1=C(O)C(=O)C=C2C1=CC=C1[C@@]2(C)CC[C@@]2(C)[C@@H]3C[C@](C)(C(=O)NCCN4CCOCC4)CC[C@]3(C)CC[C@]12C`: the inhibition in the data set listed under Homo sapiens is 77.2%. For the same compound, the IC50 in data set [2] amounted to 1.34 µM; in data set [3] it was 1.35 µM; in data set [4], 1.27 µM. Also, the Papp in data set [5] was found to be 114 nm/s.

Regarding `CC1=C(O)C(=O)C=C2C1=CC=C1[C@@]2(C)CC[C@@]2(C)[C@@H]3C[C@](C)(C(=O)NCCN(C)C)CC[C@]3(C)CC[C@]12C`, the inhibition in the data set filed under Homo sapiens is 93.6%. Moreover, the IC50 in data set [1] was 5.63 µM; in data set [2], 0.64 µM; in data set [3], 1.23 µM; in data set [4], 1.08 µM. Moreover, in data set [5], the Papp turned out to be 450 nm/s.

In the data set filed under Homo sapiens, `CC1=C(O)C(=O)C=C2C1=CC=C1[C@@]2(C)CC[C@@]2(C)[C@@H]3C[C@](C)(C(=O)O)CC[C@]3(C)CC[C@]12C` [CELASTROL] returned an inhibition of 91.8%. For the same compound, the IC50 amounted to 6.49 µM in data set [1]; 2.13 µM in data set [2]; 2.48 µM in data set [3]; 2.02 µM in data set [4]; 2.01 µM in data set [6]. The Papp in data set [5] was determined as 133 nm/s.

`CC(=O)NCCNC(=O)[C@]1(C)CC[C@]2(C)CC[C@]3(C)C4=CC=C5C(=CC(=O)C(O)=C5C)[C@]4(C)CC[C@@]3(C)[C@@H]2C1` yielded an inhibition in the data set listed under Homo sapiens of 70.5%. Besides, the IC50 in data set [2] is 2.26 µM; in data set [3] it was 3 µM; in data set [4], 3.12 µM.

Take `CCCNC(=O)[C@]1(C)CC[C@]2(C)CC[C@]3(C)C4=CC=C5C(=CC(=O)C(O)=C5C)[C@]4(C)CC[C@@]3(C)[C@@H]2C1`: the inhibition in the data set filed under Homo sapiens amounted to 60%. Further, the figures for the IC50 in data set [2], in data set [3] and in data set [4] were 2.04 µM, 2.37 µM and 2.49 µM, respectively.

As for `CCNC(=O)[C@]1(C)CC[C@]2(C)CC[C@]3(C)C4=CC=C5C(=CC(=O)C(O)=C5C)[C@]4(C)CC[C@@]3(C)[C@@H]2C1`, in the data set listed under Homo sapiens, the inhibition amounted to 69%. In addition, the figures for the IC50 in data set [2], in data set [3] and in data set [4] were 1.43 µM, 1.82 µM and 2.08 µM, respectively.

`COC(=O)[C@]1(C)CC[C@]2(C)CC[C@]3(C)C4=CC=C5C(=CC(=O)C(O)=C5C)[C@]4(C)CC[C@@]3(C)[C@@H]2C1` [PRISTIMERIN]: the inhibition in the data set listed under Homo sapiens came to 60.5%. The IC50 in data set [2] was 1.57 µM; in data set [3], 1.49 µM; in data set [4], 1.4 µM.

As to `CC1=C(O)C(=O)C=C2C1=CC=C1[C@@]2(C)CC[C@@]2(C)[C@@H]3C[C@](C)(C(=O)NCCCn4ccnc4)CC[C@]3(C)CC[C@]12C`, the inhibition in the data set filed under Homo sapiens came to 71.7%. Besides, the IC50 in data set [2] was 1.84 µM; in data set [3] it was 1.53 µM; in data set [4], 3.37 µM. Further, the Papp in data set [5] was 6 nm/s.

With `CC1=C(O)C(=O)C=C2C1=CC=C1[C@@]2(C)CC[C@@]2(C)[C@@H]3C[C@](C)(C(=O)NCCN(C(C)C)C(C)C)CC[C@]3(C)CC[C@]12C`, the inhibition in the data set listed under Homo sapiens amounted to 81.6%. The IC50 in data set [2] was determined as 1.26 µM; in data set [3], 1.05 µM; in data set [4], 0.8 µM. Moreover, the Papp in data set [5] came out at 352 nm/s.

In turn, `CC1=C(O)C(=O)C=C2C1=CC=C1[C@@]2(C)CC[C@@]2(C)[C@@H]3C[C@](C)(C(=O)OC(C)C)CC[C@]3(C)CC[C@]12C` displayed an inhibition in the data set listed under Homo sapiens of 51.5%. Moreover, the IC50 in data set [2] is 1.32 µM; in data set [3], 1.36 µM; in data set [4], 2.58 µM.

`CC1=C(O)C(=O)C=C2C1=CC=C1[C@@]2(C)CC[C@@]2(C)[C@@H]3C[C@](C)(C(=O)OCC(C)C)CC[C@]3(C)CC[C@]12C` displayed an inhibition in the data set listed under Homo sapiens of 28.4%. Also, the IC50 in data set [2] was 2.06 µM; in data set [3] it was 1.9 µM; in data set [4], 3.42 µM.

`CCN(CC)CCNC(=O)[C@]1(C)CC[C@]2(C)CC[C@]3(C)C4=CC=C5C(=CC(=O)C(O)=C5C)[C@]4(C)CC[C@@]3(C)[C@@H]2C1` came in with an inhibition in the data set listed under Homo sapiens of 94.5%. In addition, the IC50 in data set [1] was determined as 5.74 µM; in data set [2] it was 1.03 µM; in data set [3] it was 1.27 µM; in data set [4], 0.71 µM. In data set [5], the Papp worked out at 531 nm/s.

In turn, `CC1=C(O)C(=O)C=C2C1=CC=C1[C@@]2(C)CC[C@@]2(C)[C@@H]3C[C@](C)(C(=O)NCCS(C)(=O)=O)CC[C@]3(C)CC[C@]12C` yielded an inhibition in the data set listed under Homo sapiens of 69.8%. In addition, the IC50 amounted to 1.3 µM in data set [2], 1.2 µM in data set [3] and 2.41 µM in data set [4].

With `CC1=C(O)C(=O)C=C2C1=CC=C1[C@@]2(C)CC[C@@]2(C)[C@@H]3C[C@](C)(C(=O)N4CCCC(C)C4)CC[C@]3(C)CC[C@]12C` (stereo not given in full), the inhibition in the data set listed under Homo sapiens was 47.9%. For the same compound, the IC50 was 2.03 µM in data set [2], 1.84 µM in data set [3] and 2.43 µM in data set [4].

As for `CCOC(=O)[C@]1(C)CC[C@]2(C)CC[C@]3(C)C4=CC=C5C(=CC(=O)C(O)=C5C)[C@]4(C)CC[C@@]3(C)[C@@H]2C1`, the inhibition in the data set listed under Homo sapiens turned out to be 54.8%. For the same compound, the IC50 in data set [2] is 1.76 µM; in data set [3], 1.56 µM; in data set [4], 1.97 µM.

Consider `CNC(=O)[C@]1(C)CC[C@]2(C)CC[C@]3(C)C4=CC=C5C(=CC(=O)C(O)=C5C)[C@]4(C)CC[C@@]3(C)[C@@H]2C1`, for which the inhibition in the data set filed under Homo sapiens was 69.2%. Also, the IC50 is 1.2 µM in data set [2], 1.42 µM in data set [3] and 1.93 µM in data set [4].

`CC1=C(O)C(=O)C=C2C1=CC=C1[C@@]2(C)CC[C@@]2(C)[C@@H]3C[C@](C)(C(=O)NC(C)C)CC[C@]3(C)CC[C@]12C` showed an inhibition in the data set listed under Homo sapiens of 60%. In addition, the IC50 in data set [2] worked out at 2.55 µM; in data set [3] it was 2.04 µM; in data set [4] it was 2.64 µM.
